The source of these data is patent US12036189B2, “Method of treating major depressive disorder” (priority 2018, dated 2024).

A value given as a limit tells only on which side of the number the result lay.

Data set [1] deals with animal models of depression. The conditions noted are these: cited from earlier work.
The subject of data set [2] is human peripheral blood lymphocytes (HPBL). The protocol: The clastogenic potential of esketamine was evaluated in the in vitro mammalian chromosome aberration test using human peripheral blood lymphocytes (HPBL) in both the absence and presence of an induced metabolic activation system (the 9000 g supernatant [S9] microsomal fraction of liver homogenate from rats exposed to Aroclor-1254).
The study was conducted in 2 phases, with a preliminary toxicity test used to determine the appropriate concentrations for the definitive chromosomal aberration assay. Water was used as a negative (vehicle) control. Toxicity (defined as ≥45% reduction in MI relative to the vehicle control) was evaluated at 9 concentrations, ranging from 0.0238 to 238 μg/ml, after exposure of HPBL to esketamine for 20 hours in the absence of S9 activation, or for 4 hours, either in the presence or absence of S9 activation, followed by a 16-hour recovery period.
The definitive chromosome aberration assay evaluated HPBL cells after exposure to esketamine for 20 hours in the absence of S9 activation, or for 4 hours, either in the presence of absence of S9 activation, followed by a 16-hour recovery. Positive controls for chromosomal aberrations in non-activated and S9-activated evaluations, respectively, consisted of mitomycin C (MMC, 0.6 and 0.3 μg/mL for the 4- and 20-hour exposures, respectively) and cyclophosphamide (CP, 2.5, 5, and 7.5 μg/mL). […] Initially, the doses selected for evaluation of chromosomal aberrations were 60, 120, and 238 μg/mL for the non-activated 4- and 20-hour treatment conditions; and 30, 60, and 200 μg/mL for the S9-activated 4-hour treatment condition.

Data set [3] shares this test system. The source holds these as a separate data set.
Description: The study was conducted in 2 phases, with a preliminary toxicity test used to determine the appropriate concentrations for the definitive chromosomal aberration assay. Water was used as a negative (vehicle) control. In both phases, the cells were treated for 3 and 21 hours in the absence of S9 mix and for 3 hours in the presence of S9 mix. The mitotic index was assessed for all cultures to determine cytotoxicity. Ten concentrations, ranging from 2.62 to 260.16 μg/mL, were evaluated in the preliminary toxicity test. […] S-Norketamine concentrations of 93.66, 156.10 or 260.16 μg/mL were selected for metaphase analysis.
A short description of data set [4]: Repeated dose 28 day study, toxicokinetics. The conditions noted are these: male rats, Day 28. The protocol: The objective of the study was to assess the potential toxicity, neurobehavioral effects, and toxicokinetics (TK) of esketamine when administered orally, via gavage, to Sprague Dawley rats for 28 days and to evaluate recovery during a 14-day drug-free period. Fifty male and 50 female rats were randomized into 4 groups (15/sex/Groups 1 and 4; 10/sex/Groups 2 and 3). Esketamine was administered via oral gavage once daily for 28 consecutive days to males at 0 (vehicle control), 6, 10 or 30 mg/kg/day and females at 0 (vehicle control), 2, 10 or 20 mg/kg/day in a dose volume of 10 mL/kg. Animals were observed until euthanized and necropsied on Day 29 (10/sex/group) or 43 (5/sex from Groups 1 and 4). Toxicity was evaluated based on mortality, clinical observations, body weights, food consumption, ophthalmology, motor activity, functional observational battery, clinical pathology (clinical chemistry, hematology, coagulation and urinalysis), organ weights, anatomic (macroscopic or microscopic) pathology. Toxicokinetic animals (3/sex/Group 1; 6/sex/Groups 2, 3, and 4) were similarly dosed and bled on Day 1 and during Week 4 for toxicokinetic analysis.

Data set [5] is described as follows: Single dose, randomized, open-label crossover study, pharmacokinetics. The conditions noted are these: esketamine hydrochloride, 15 subjects. The text has this:
A randomized, open-label 4-way crossover study in 16 healthy male and female subjects was held wherein said subjects were placed in a randomly assigned order and administered esketamine. Each subject was assigned to 1 of 4 treatment sequences according to a randomization code such that 4 subjects were assigned to each treatment sequence. There was a wash-out period of at least 7 days between dosing periods with dosing consisting of either oral or intravenous esketamine hydrochloride. The study consisted of an eligibility screening period of 28 days, 4 study periods involving administration of a single dose of esketamine hydrochloride followed by safety assessments with blood sampling for PK purposes up to 72 hours after study drug administration, discharge at 72 hours after study drug administration and a follow-up visit 7-14 days after the last PK blood sample was taken on Day 4.

The next data set relates to liver of Crl:CD(SD) rats. The experiment in a line: In vivo single cell gel electrophoresis (comet) assay, DNA strand breaks in the liver.

On to `CN[C@@]1(c2ccccc2Cl)CCCCC1=O` [(R)-ketamine, (2R)-2-(2-Chlorophenyl)-2-(methylamino) cyclohexanone], for which the “psychotomimetic side effects and abuse liability” value in data set [1] is “without psychotomimetic side effects and abuse liability”.
Regarding `O=P1(N(CCCl)CCCl)NCCCO1` (stereo not shown) [CP, cyclophosphamide], in data set [2] (S9-activated system, positive control 2.5, 5 and 7.5 μg/mL), the “structural aberrations, % of the cells” value is given as 10.7%.
`N[C@]1(c2ccccc2Cl)CCCCC1=O` [S-norketamine]: in data set [3], the “Toxicity (mitotic index)” value is given as “not observed at any dose”; the “induction of structural and numerical chromosomal aberrations” value is recorded as “negative”.
Turning to `CN[C@]1(c2ccccc2Cl)CCCCC1=O` [esketamine, (2S)-2-(2-Chlorophenyl)-2-(methylamino) cyclohexanone], the “Toxicity (≥45% reduction in MI relative to the vehicle control)” value in data set [2] is listed as “not observed at any dose”. For the same compound, the “doses at which cytotoxicity (≥45% reduction in mitotic index) was observed” value in data set [2] (human) was at least 200 µg/mL. The compound further returned a t1/2 in data set [4] (10 mg/kg oral gavage) of 0.6 h. In addition, in data set [4] (30 mg/kg oral gavage), the AUC0-t came out at 575 ng·h/mL. For the same compound, the “AUC0-inf, Geometric mean” value was found to be 257.14 ng·h/mL in data set [5] (0.3 mg/kg iv), 25.82 ng·h/mL in data set [5] (20 mg oral solution), 22.46 ng·h/mL in data set [5] (20 mg oral tablet) and 180.84 ng·h/mL in data set [5] (100 mg oral tablet). Further, the “AUC0-t, Geometric mean” value in data set [5] (0.3 mg/kg iv) was 249.15 ng·h/mL; in data set [5] (20 mg oral solution), 23.44 ng·h/mL; in data set [5] (20 mg oral tablet) it was 20.05 ng·h/mL; in data set [5] (100 mg oral tablet) it was 172.71 ng·h/mL. Moreover, the “Cmax, Geometric mean” value in data set [5] (0.3 mg/kg iv) is 94.50 ng/mL; in data set [5] (20 mg oral solution), 16.48 ng/mL; in data set [5] (100 mg oral tablet), 65.34 ng/mL. Besides, the “t1/2, Geometric mean” value in data set [5] (0.3 mg/kg iv) stood at 10.16 h; in data set [5] (20 mg oral solution), 2.91 h; in data set [5] (20 mg oral), 2.84 h; in data set [5] (100 mg oral) it was 7.66 h. Besides, the “tmax, Median” value stood at 1.00 h in data set [5] (0.3 mg/kg iv), 0.50 h in data set [5] (20 mg oral solution), 0.75 h in data set [5] (20 mg oral tablet) and 0.75 h in data set [5] (100 mg oral tablet). Moreover, in the data set on liver of Crl:CD(SD) rats (female rats, 25 and 50 mg/kg/day oral gavage, three doses, p<0.001), the “median % TI in the liver vs vehicle control” value is “Statistically significant increases”. Besides, the “DNA strand breaks in the liver (study conclusion)” value in the data set with liver of Crl:CD(SD) rats (male and female rats, oral gavage) was “evidence of causing an increase in DNA strand breaks”. Besides, the “median % tail intensity (TI) in the liver vs vehicle control” value in the data set with liver of Crl:CD(SD) rats (male rats, 75 mg/kg/day oral gavage, three doses, p<0.001) is recorded as “Statistically significant increases”. Further, the “macroscopic examination after 3 doses” value in the data set with liver of Crl:CD(SD) rats (rat, in vivo) was “no test item related lesions”.
